# Measurements reported in patent US20100029654A1, “CARDIOVASCULAR COMPOSITIONS AND USE OF THE SAME FOR THE TREATMENT OF ALZHEIMER'S DISEASE” (MOUNT SINAI SCHOOL OF MEDICINE, priority 2006, published 2010).
# Counter-ions that a name gives are not always drawn. Like-named read-outs stand apart in the source and are kept apart here.
# How the values were obtained:
# [1] = system: primary cortico-hippocampal neuron cultures; conditions: Tg2576, mouse
# Experimental: (§1) For in vitro treatments drugs available from “The Spectrum Collection” in stocks of 10 mM in DMSO were applied directly to cultures to the desired concentrations (final 1% DMSO); control primary neuron cultures from Tg2576 embryos were treated with vehicle resulting in a final 1% DMSO.
# (§2) Cell viability was assessed using a commercial available LDH assay kit according to the manufacture's instruction (Promega).
# Aβ1-40 = Aβ1-40 content in conditioned medium of primary cortico-hippocampal neuron cultures from Tg2576 mice (ELISA; primary and secondary dose-response screening); type: cell-based, mouse; conditions: for activity at 100 µM / EC50: Mus musculus; for activity at 100 µM: 24 h, read-out: Ab1-40 (% of ctl); for activity at 100 µM / Ab1-40 (% of ctl): drug 100 μM; for reduced Aβ1-40: <85% of ctl
# Procedure, shortened: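 Primary cortico-hippocampal neurons from embryonic Tg2576 mice were plated at 1.0×10^5 cells per well on poly-D-lysine-coated 96-well plates in Neurobasal with 2% B27, 0.5 mM L-glutamine and 1% penicillin-streptomycin. Cultures received drug in 1% DMSO, and Aβ1-40 in the conditioned medium was measured by BioSource ELISA 24 hours after treatment, relative to vehicle controls.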
# Aβ1-42 [2] = experiment: Aβ1-42 content in conditioned medium of primary cortico-hippocampal neuron cultures from Tg2576 mice (ELISA; primary and secondary dose-response screening); type: cell-based, mouse; conditions: for activity at 100 µM: Mus musculus, Neuron, 24 h, read-out: Ab1-42 (% of ctl); for activity at 100 µM / Ab1-42 (% of ctl): drug 100 μM; for reducing Aβ1-42: <85% of ctl
# Procedure, shortened: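 This screen tested cardiovascular drugs for Aβ-lowering in Tg2576 embryonic cortico-hippocampal neuron cultures plated at 1.0×10^5 cells per well in poly-D-lysine-coated 96-well plates with Neurobasal/B27 medium. Drugs at 100 μM were added directly to the medium in duplicate, with 1% DMSO alone as the control. Conditioned medium was then collected, and its Aβ1-42 level was quantified with BioSource ELISA kits.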
# Aβ1-42 [3] = experiment: as above; type: cell-based, mouse; conditions: Mus musculus; for EC50: Neuron; for activity at 100 µM: primary screening, drug 100 μM, Tg2576 neuron cultures, table sorted by Aβ1-42, read-out: Ab1-42 (% of ctl)
# [4] = system: primary cortico-hippocampal neuron cultures; experiment: MTT in primary screening
# [5] = system: primary cortico-hippocampal neuron cultures; experiment: lactate dehydrogenase (LDH) activity assay in parallel neuron cultures; conditions: for LDH at E-5M % of change: drug at E-5M
# Experimental: as §1, §2
# [6] = Neuron, Primary Screening, table sorted by Aβ1-40
# [7] = Neuron, primary screening, Tg2576 neuron cultures, table sorted by Aβ1-42
# [8] = Neuron, secondary dose-response screening 0.01-100 μM, 24 hours, read-out: EC50 (molar) Aβ1-40
# [9] = Primary Screening, table sorted by Aβ1-40
# [10] = primary screening, Tg2576 neuron cultures, table sorted by Aβ1-42
# [11] = 24 h, secondary dose-response screening 0.01-100 μM, 24 hours, read-out: EC50 (molar) Aβ1-42
# [12] = primary screening, table sorted by Aβ1-42
Structure (SMILES),activity at 100 µM (Aβ1-40; [6]) [%],activity at 100 µM (Aβ1-40; [7]) [%],EC50 (Aβ1-40; [8]) [M],reduced Aβ1-40 (Aβ1-40; primary screening),activity at 100 µM (Aβ1-42 [2]; [9]) [%],activity at 100 µM (Aβ1-42 [2]; [10]) [%],reducing Aβ1-42 (Aβ1-42 [2]; primary screening),EC50 (Aβ1-42 [3]; [11]) [M],"MTT (% of ctl) [4, 9]","MTT (% of ctl) [4, 12]","LDH (% of ctl) [5, 9]",LDH at E-5M % of change [5] [%],"LDH (% of ctl) [5, 12]",activity at 100 µM (Aβ1-40; [10]) [%],Ab1-40 (% of ctl) (Aβ1-40; [9]),Ab1-42 (% of ctl) (Aβ1-42 [2]; [9]),activity at 100 µM (Aβ1-42 [3]; 24 h) [%],further results
N=C(N)NCCN1CCCCCCC1 [Guanethidine Sulfate],–,–,–,–,–,–,–,–,–,–,–,–,–,–,–,–,–,LDH (% of ctl) [1]: 1057.3 % of ctl
CCCCCCCCNC(C)C(O)c1ccc(SC(C)C)cc1 (centres unmarked) [Suloctidil],1.8,1.8,1.45e-05,reduced Aβ1-40,4.6,4.6,useful in reducing Aβ1-42,2.13e-05,77.7 % of ctl,77.7 % of ctl,396.1 % of ctl,−3.4,396.1 % of ctl,–,–,–,–,–
C=C(CC)C(=O)c1ccc(OCC(=O)O)c(Cl)c1Cl [Ethacrynic Acid],4.4,4.4,2.1e-05,reduced Aβ1-40,1.8,1.8,useful in reducing Aβ1-42,2.25e-05,109.9 % of ctl,109.9 % of ctl,101.5 % of ctl,10.0,101.5 % of ctl,–,–,–,–,–
NCCCCCC(=O)O [Aminocaproic Acid],–,–,–,–,–,–,–,–,80.3 % of ctl,80.3 % of ctl,90.4 % of ctl,–,90.4 % of ctl,124,124.4 % of ctl,184.3 % of ctl,184,–
CO[C@H]1[C@H](O)[C@H](O[C@H]2CC[C@@]3(C)[C@H](CC[C@@H]4[C@@H]3CC[C@]3(C)[C@@H](C5=CC(=O)OC5)CC[C@]43O)C2)O[C@@H](C)[C@@H]1O [Neriifolin],–,–,–,reduced Aβ1-40,–,–,–,–,101.2 % of ctl,101.2 % of ctl,110.8 % of ctl,–,110.8 % of ctl,79.7,79.7 % of ctl,90.3 % of ctl,90.3,–
C[C@]12CC[C@H]3[C@@H](CC[C@]4(O)C[C@@H](O)CC[C@]34C=O)[C@@]1(O)CC[C@@H]2C1=CC(=O)OC1 [Strophanthidin],–,–,–,–,–,–,–,–,99.2 % of ctl,99.2 % of ctl,119.4 % of ctl,–,119.4 % of ctl,108,107.5 % of ctl,88.6 % of ctl,88.6,–
N=C(N)NC(=O)c1nc(Cl)c(N)nc1N [Amiloride Hydrochloride],77.5,77.5,8.67e-05,reduced Aβ1-40,47.1,47.1,useful in reducing Aβ1-42,0.039,80.8 % of ctl,80.8 % of ctl,104.7 % of ctl,6.4,104.7 % of ctl,–,–,–,–,"EC50 (Aβ1-40; Neuron, Table IV, dose-response 0.01-100 μM, read-out: EC50 (M): Ab-lowering activity Abeta1-40): 8.67e-05 M; EC50 (Aβ1-42 [3]; Table IV, dose-response 0.01-100 μM, read-out: EC50 (M): Ab-lowering activity): 3.01e-05 M; LDH (at 5F-5 M) ([5]; Table IV): no change"
